Values quoted from earlier work, collected in paper PMC3157551 (Bioconjugate chemistry, 2011).

## avidin: avidin (Pierce-Thermo), 128 amino acid biotin-binding protein
  dissociation half-time of biotin from avidin: 89 days
